Molecular target: T1, human heme oxygenase-2 (hHO-2) (Homo sapiens, UniProt P30519)
T1 construct: gene HMOX2; truncation derivative, 1–264 amino acids with an N-terminal His-tag
T1 sequence (P30519 1-264): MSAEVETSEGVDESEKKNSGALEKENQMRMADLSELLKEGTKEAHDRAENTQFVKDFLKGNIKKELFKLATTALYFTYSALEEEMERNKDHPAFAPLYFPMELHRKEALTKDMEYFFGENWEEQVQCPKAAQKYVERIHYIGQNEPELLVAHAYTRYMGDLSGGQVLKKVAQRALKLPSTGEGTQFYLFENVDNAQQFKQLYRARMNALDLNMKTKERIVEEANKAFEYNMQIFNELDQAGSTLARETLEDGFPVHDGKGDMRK
Experiment: spectral (Soret) binding and heme degradation assay on purified protein

O=C(CC(c1ccccc1)c1ccccc1)Cn1ccnc1 [QC-308, 1-(1H-imidazol-1-yl)-4,4-diphenyl-2-butanone]
spectral (Soret) binding and heme degradation assay on purified protein: the spectral changes upon addition of QC-308 were similar to those seen for hHO-1

— publication PMC3261875 (PLoS ONE, 2012)
